Measurements reported in ChEMBL document CHEMBL3045962, “Synthesis and antitumor evaluation of some novel pyrrolizine derivatives” (Med Chem Res, 2012).

System: MCF7
Assay: Cytotoxicity against Homo sapiens (human) MCF7 cells after 48 hr by neutral red assay
Assay type: functional, cell-based

Structure (SMILES)	IC50 [µM]
CC1=NC2C(=C3CCCN3C2(O)N2CCOCC2)C(=O)N1 (stereo not drawn)	36
O=C1NC(c2ccccc2)=NC2C1=C1CCCN1C2(O)N1CCOCC1 (stereo not drawn)	16
CC(=O)CC(=O)NC1C(C#N)=C2CCCN2C1(O)N1CCOCC1 (stereo not drawn)	22
CC(=O)C1=C(N)C2=C3CCCN3C(O)(N3CCOCC3)C2NC1=O (stereo not drawn)	29
O=C1NC=NC2C1=C1CCCN1C2(O)N1CCOCC1 (stereo not drawn)	30
CCOC=NC1C(C#N)=C2CCCN2C1(O)N1CCOCC1 (stereo not drawn)	41
N#CC1=C2CCCN2C(O)(N2CCOCC2)C1/N=C/NNC(=O)c1ccncc1 (stereo not drawn)	29
N#CC1=C2CCCN2C(O)(N2CCOCC2)C1/N=C/NNC(=O)c1ccccc1 (stereo not drawn)	18
O=C1NC(NNC(=O)c2ccncc2)=NC2C1=C1CCCN1C2(O)N1CCOCC1 (stereo not drawn)	20
O=C1NC(NNC(=O)c2ccccc2)=NC2C1=C1CCCN1C2(O)N1CCOCC1 (stereo not drawn)	19
NC1=NC=NC2C1=C1CCCN1C2(O)N1CCOCC1 (stereo not drawn)	35
CC(=O)NC1=NC=NC2C1=C1CCCN1C2(O)N1CCOCC1 (stereo not drawn)	29
O=C(NC1=NC=NC2C1=C1CCCN1C2(O)N1CCOCC1)c1ccccc1 (stereo not drawn)	21
O=C(CCl)NC1=NC=NC2C1=C1CCCN1C2(O)N1CCOCC1 (stereo not drawn)	23
CCOC(=O)NC1=NC=NC2C1=C1CCCN1C2(O)N1CCOCC1 (stereo not drawn)	25
N#CC1=C2CCCN2C(O)(N2CCOCC2)C1/N=C/N (stereo not drawn)	26
CC(=O)C/C(C)=N/C1C(C#N)=C2CCCN2C1(O)N1CCOCC1 (stereo not drawn)	42
C/C(CC(=O)c1ccccc1)=N\C1C(C#N)=C2CCCN2C1(O)N1CCOCC1 (stereo not drawn)	28
CC(=O)C1=C(N)C2=C3CCCN3C(O)(N3CCOCC3)C2N=C1C (stereo not drawn)	38

Structure (SMILES)	IC50 [µM]
N=C1C2=C3CCCN3C(O)(N3CCOCC3)C2NC(=O)N1c1ccccc1 (stereo not drawn)	18
N=C1C2=C3CCCN3C(O)(N3CCOCC3)C2NC(=O)N1c1ccc(Cl)cc1 (stereo not drawn)	37
CC(=O)NC1C(C#N)=C2CCCN2C1(O)N1CCOCC1 (stereo not drawn)	29
N#CC1=C2CCCN2C(O)(N2CCOCC2)C1NC(=O)c1ccccc1 (stereo not drawn)	34
N#CC1=C2CCCN2C(O)(N2CCOCC2)C1NC(=O)CCl (stereo not drawn)	23
CCOC(=O)NC1C(C#N)=C2CCCN2C1(O)N1CCOCC1 (stereo not drawn)	27
N#CC1=C2CCCN2C(O)(N2CCOCC2)C1N (stereo not drawn)	35
N#CC1=C2CCCN2C(O)(N2CCOCC2)C1/N=C/c1ccc(Cl)cc1 (stereo not drawn)	45
N#CC1=C2CCCN2C(O)(N2CCOCC2)C1/N=C/c1ccc([N+](=O)[O-])cc1 (stereo not drawn)	19
COc1ccc(/C=N/C2C(C#N)=C3CCCN3C2(O)N2CCOCC2)cc1 (stereo not drawn)	16
CN(C)c1ccc(/C=N/C2C(C#N)=C3CCCN3C2(O)N2CCOCC2)cc1 (stereo not drawn)	37
N#CC1=C2CCCN2C(O)(N2CCOCC2)C1N1C(=O)CSC1c1ccc(Cl)cc1 (stereo not drawn)	18
N#CC1=C2CCCN2C(O)(N2CCOCC2)C1N1C(=O)CSC1c1ccc([N+](=O)[O-])cc1 (stereo not drawn)	55
COc1ccc(C2SCC(=O)N2C2C(C#N)=C3CCCN3C2(O)N2CCOCC2)cc1 (stereo not drawn)	35
CN(C)c1ccc(C2SCC(=O)N2C2C(C#N)=C3CCCN3C2(O)N2CCOCC2)cc1 (stereo not drawn)	19
CCNC(=S)NC1C(C#N)=C2CCCN2C1(O)N1CCOCC1 (stereo not drawn)	37
N#CC1=C2CCCN2C(O)(N2CCOCC2)C1NC(=O)Nc1ccccc1 (stereo not drawn)	44
CCN1C(=N)C2=C3CCCN3C(O)(N3CCOCC3)C2NC1=S (stereo not drawn)	34
COc1cccc2c1C(=O)c1c(O)c3c(c(O)c1C2=O)C[C@@](O)(C(=O)CO)C[C@@H]3O[C@H]1C[C@H](N)[C@H](O)[C@H](C)O1 [DOXORUBICIN]	63
